# According to patent EP4635500A1, “THERAPEUTIC AGENT FOR BACTERIAL INFECTION” (Sumitomo Pharma Co., Ltd., priority 2022, dated 2024):
# Read-outs that look alike come from different tables or passages of the source.
# Tests used:
# P. aeruginosa = test: MIC, broth microdilution, CDC/FDA Antibiotic Resistance Isolate Bank (Example 7, Tables 10, 15); assay type: cell-based; conditions: for MIC: Pseudomonas aeruginosa, read-out: MIC
# 53 CRE and CPE strains = test: MICrange, MIC50, MIC80, MIC90 for 53 bacterial isolates (Example 5, Table 5); assay type: cell-based; conditions: 53 bacterial isolates
# [1] = 26 metallo-carbapenemase-producing P. aeruginosa strains, β-lactamase inhibitor µg/mL in parentheses
# [2] = 96 strains of P. aeruginosa, β-lactamase inhibitor µg/mL in parentheses
compound,measurement,setting,value
"O=C(O)c1cn(C2CC2)c2cc(N3CCNCC3)c(F)cc2c1=O [Ciprofloxacin, ciprofloxacin]",MIC against 26 metallo-carbapenemase-producing strains MIC50,P. aeruginosa; [1],32 µg(mL)
same,MIC against 26 metallo-carbapenemase-producing strains MIC90,P. aeruginosa; [1],64 µg(mL)
same,MIC against 96 strains of P. aeruginosa MIC50,P. aeruginosa; [2],16 µg(mL)
same,MIC against 96 strains of P. aeruginosa MIC90,P. aeruginosa; [2],64 µg(mL)
same,MIC,"P. aeruginosa; P. aeruginosa KUB No. 5602, AR Bank # 105",> 64 µg/mL
same,MIC,"P. aeruginosa; P. aeruginosa KUB No. 5665, AR Bank # 232",2 µg/mL
same,MIC,"P. aeruginosa; P. aeruginosa KUB No. 5666, AR Bank # 23",0.5 µg/mL
same,MIC,"P. aeruginosa; P. aeruginosa KUB No. 5667, AR Bank # 234",2 µg/mL
same,MIC,"P. aeruginosa; P. aeruginosa KUB No. 5669, AR Bank # 236",4 µg/mL
same,MIC,"P. aeruginosa; P. aeruginosa KUB No. 5675, AR Bank # 242",8 µg/mL
same,MIC,"P. aeruginosa; P. aeruginosa KUB No. 5676, AR Bank # 243",8 µg/mL
same,MIC,"P. aeruginosa; P. aeruginosa KUB No. 5705, AR Bank # 272",8 µg/mL
same,MIC,"P. aeruginosa; P. aeruginosa KUB No. 5747, AR Bank # 351",2 µg/mL
same,MIC,"P. aeruginosa; P. aeruginosa KUB No. 5748, AR Bank # 352",4 µg/mL
same,MIC,"P. aeruginosa; P. aeruginosa KUB No. 5750, AR Bank # 354",4 µg/mL
same,MIC,"P. aeruginosa; P. aeruginosa KUB No. 5754, AR Bank # 358",4 µg/mL
same,MIC,"P. aeruginosa; P. aeruginosa KUB No. 5755, AR Bank # 359",4 µg/mL
same,MIC,"P. aeruginosa; P. aeruginosa KUB No. 5798, AR Bank # 455",1 µg/mL
same,MIC,"P. aeruginosa; P. aeruginosa KUB No. 5801, AR Bank # 458",0.5 µg/mL
same,MIC,"P. aeruginosa; P. aeruginosa KUB No. 5802, AR Bank # 459",4 µg/mL
same,MIC,"P. aeruginosa; P. aeruginosa KUB No. 5804, AR Bank # 862",1 µg/mL
same,MIC,"P. aeruginosa; P. aeruginosa KUB No. 5806, AR Bank # 864",> 64 µg/mL
same,MIC,"P. aeruginosa; P. aeruginosa KUB No. 5813, AR Bank # 508",0.002 µg/mL
same,MIC,"P. aeruginosa; P. aeruginosa KUB No. 5815, AR Bank # 510",0.004 µg/mL
same,MIC,"P. aeruginosa; P. aeruginosa KUB No. 5817, AR Bank # 512",0.001 µg/mL
same,MIC,"P. aeruginosa; P. aeruginosa KUB No. 5820, AR Bank # 515",> 0.064 µg/mL
"CC(C)(O/N=C(\C(=O)N[C@@H]1C(=O)N2C(C(=O)[O-])=C(C[n+]3ccccc3)CS[C@H]12)c1csc(N)n1)C(=O)O [CAZ, ceftazidime]",MIC50,53 CRE and CPE strains; read-out: MIC50,> 32 µg/mL
same,MIC80,53 CRE and CPE strains; read-out: MIC80,> 32 µg/mL
same,MIC90,53 CRE and CPE strains; read-out: MIC90,> 32 µg/mL
